According to patent publication US9968649B2, “Vasopressin formulations for use in treatment of hypotension” (Par Pharmaceutical, Inc., priority 2015, dated 2018):
“And” between values parts separate entries of the source, which are not always exact repeats. Equal values may be shown once. Read-outs that look alike come from different tables or passages of the source.

Tests used:
[1] = Chlorobutanol content of stored samples (Example 8); format: physicochemical; conditions: inverted
Protocol: (§1) Experiments were also conducted on the same samples above over the course of the experiments to measure the amount of individual impurities in the samples, pH of the samples, chlorobutanol content, particulate matter, antimicrobial effectiveness, and bacterial endotoxin levels (TABLES 25-42). (NR=no reading; ND=not determined; UI=unidentified impurity).

spermatozoa = conditions: mice; cited from earlier work
[2] = Effect of pH 3.5-4.5 on vasopressin formulations, four weeks at 25° C. or 40° C. (Example 9); format: physicochemical
Protocol: To test of effect of pH on vasopressin formulations, solutions containing 20 units/mL vasopressin, adjusted to pH 3.5, 3.6, 3.7, 3.8, 3.9, 4, 4.1, 4.2, 4.3, 4.4, or 4.5 with 10 mM acetate buffer, were prepared. One mL of each of the vasopressin formulations was then filled into 10 cc vials.
The vasopressin formulations were stored for four weeks at: (i) 25° C.; or (ii) 40° C., and the assay (% label claim; vasopressin remaining) and % total impurities after four weeks were measured using the methods described in EXAMPLE 1. FIGS. 11 and 12 below display the results of the experiments at 25° C. The results of the experiments at 40° C. are included in FIGS. 13 and 14.

[3] = format: physicochemical
[4] = cited from earlier work
[5] = tested on: patients with vasodilatory shock; conditions: cited from earlier work
[6] = cited from earlier work; remark: listed apart in the source
[7] = pH of stored samples (Example 8); format: physicochemical; conditions: inverted
Protocol: as §1

bacterial = assay: In vitro bacterial mutagenicity (Ames) test
[8] = Particulate matter (USP) of stored samples (Example 8); format: physicochemical; conditions: inverted
Protocol: as §1

Question: For `NC(=O)CC[C@@H]1NC(=O)[C@H](Cc2ccccc2)NC(=O)[C@H](Cc2ccc(O)cc2)NC(=O)[C@@H](N)CSSC[C@@H](C(=O)N2CCC[C@H]2C(=O)N[C@@H](CCCN=C(N)N)C(=O)NCC(N)=O)NC(=O)[C@H](CC(N)=O)NC1=O` [Vasopressin, Cyclo (1-6) L-Cysteinyl-L-Tyrosyl-L-Phenylalanyl-L-Glutaminyl-L-Asparaginyl-L-Cysteinyl-L-Prolyl-L-Arginyl-L-Glycinamide], which Chlorobutanol ([1]; 5° C., 1 month) is on record?
Answer: 0.49% w/v and 0.48% w/v

Question: And the Chlorobutanol ([1]; 5° C., 2 months)?
Answer: 0.48% w/v and 0.47% w/v

Question: And the Chlorobutanol ([1]; 5° C., 3 months)?
Answer: 0.48% w/v and 0.47% w/v

Question: And the Chlorobutanol ([1]; 5° C., 6 months)?
Answer: 0.47% w/v and 0.48% w/v

Question: And the Chlorobutanol ([1]; 5° C., 9 months)?
Answer: 0.48% w/v and 0.47% w/v

Question: What about the Chlorobutanol ([1]; 5° C., 12 months) of the same molecule?
Answer: 0.48% w/v and 0.49% w/v

Question: And the Chlorobutanol ([1]; 5° C., 18 months)?
Answer: 0.49% w/v and 0.48% w/v

Question: And the Chlorobutanol ([1]; 5° C., 24 months)?
Answer: 0.49% w/v and 0.48% w/v

Question: What about the Chlorobutanol ([1]; 5° C., Initial) of the same molecule?
Answer: 0.48% w/v and 0.47% w/v

Question: And the Chlorobutanol ([1]; 40° C., 1 month)?
Answer: 0.48% w/v

Question: And the Chlorobutanol ([1]; 40° C., 2 months)?
Answer: 0.50% w/v

Question: And the Chlorobutanol ([1]; 40° C., 3 months)?
Answer: 0.47% w/v

Question: What about the Chlorobutanol ([1]; 40° C., Initial) of the same molecule?
Answer: 0.49% w/v

Question: And the effect on spermatozoa (spermatozoa)?
Answer: can have an effect on function and fertilizing ability of spermatozoa

Question: What about the “pH providing the highest stability” value ([2]; 25° C.) of the same molecule?
Answer: 3.7

Question: What about the “pH with lowest level of impurities within pH 3.6 to 3.8” value ([2]; 25° C.) of the same molecule?
Answer: 3.8

Question: What about the “pH providing the highest stability” value ([2]; 40° C.) of the same molecule?
Answer: 3.6

Question: And the “pH with lowest level of impurities within pH 3.6 to 3.8” value ([2]; 40° C.)?
Answer: 3.8

Question: What about the “pH with lowest level of impurities within pH 3.6 to 3.8” value ([3]; pH 3.6) of the same molecule?
Answer: 3.8

Question: What about the “pH with lowest level of impurities within pH 3.7 to 3.8” value ([3]; pH 3.7) of the same molecule?
Answer: 3.8

Question: What about the “dose excreted unchanged in urine” value ([4]; human, in vivo) of the same molecule?
Answer: about 6%

Question: And the apparent half-life ([4]; infusion rates 0.01-0.1 units/minute)?
Answer: ≤ 10 min

Question: And the “time for pressor effect to fade” value ([5]; after stopping the infusion)?
Answer: ≤ 20 min

Question: And the “time of peak pressor effect” value ([5]; infusion of exogenous vasopressin)?
Answer: ≤ 15 min

Question: What about the “hemodynamic effect at therapeutic doses” value ([5]; patients with vasodilatory shock) of the same molecule?
Answer: increases systemic vascular resistance and mean arterial blood pressure

Question: What about the “tachyphylaxis or tolerance to the pressor effect” value ([5]; patients) of the same molecule?
Answer: no evidence for tachyphylaxis or tolerance

Question: And the “increase of clearance of vasopressin in pregnancy” value ([6]; at term)?
Answer: up to 5 fold

Question: What about the “clearance of vasopressin in pregnancy” value ([6]; first trimester) of the same molecule?
Answer: only slightly increased

Question: And the “increase of clearance of vasopressin in pregnancy” value ([6]; third trimester)?
Answer: about 4 fold

Question: And the pH ([7]; 5° C., 1 month)?
Answer: 3.5 and 3.6

Question: And the pH ([7]; 5° C., 2 months)?
Answer: 3.5 and 3.6

Question: And the pH ([7]; 5° C., 3 months)?
Answer: 3.5 and 3.6

Question: And the pH ([7]; 5° C., 6 months)?
Answer: 3.5 and 3.6

Question: What about the pH ([7]; 5° C., 9 months) of the same molecule?
Answer: 3.5 and 3.6

Question: And the pH ([7]; 5° C., 12 months)?
Answer: 3.5 and 3.6

Question: And the pH ([7]; 5° C., 18 months)?
Answer: 3.8 and 3.6 and 3.5

Question: And the pH ([7]; 5° C., 24 months)?
Answer: 3.5 and 3.6

Question: And the pH ([7]; 5° C., Initial)?
Answer: 3.5 and 3.6

Question: And the pH ([7]; 40° C., 1 month)?
Answer: 3.3

Question: And the pH ([7]; 40° C., 2 months)?
Answer: 3.2

Question: What about the pH ([7]; 40° C., 3 months) of the same molecule?
Answer: 3.1

Question: And the pH ([7]; 40° C., Initial)?
Answer: 3.5

Question: What about the “bacterial mutagenicity (Ames) test result” value (bacterial) of the same molecule?
Answer: negative

Question: What about the “Particulate Matter (USP) (≥10 μm)” value ([8]; 5° C., 1 month) of the same molecule?
Answer: 1 and 2

Question: And the “Particulate Matter (USP) (≥25 μm)” value ([8]; 5° C., 1 month)?
Answer: 0

Question: What about the “Particulate Matter (USP) (≥10 μm)” value ([8]; 5° C., 2 months) of the same molecule?
Answer: 1

Question: And the “Particulate Matter (USP) (≥25 μm)” value ([8]; 5° C., 2 months)?
Answer: 0

Question: What about the “Particulate Matter (USP) (≥10 μm)” value ([8]; 5° C., 3 months) of the same molecule?
Answer: 1 and 2

Question: And the “Particulate Matter (USP) (≥25 μm)” value ([8]; 5° C., 3 months)?
Answer: 0

Question: What about the “Particulate Matter (USP) (≥10 μm)” value ([8]; 5° C., 6 months) of the same molecule?
Answer: 2 and 1

Question: What about the “Particulate Matter (USP) (≥25 μm)” value ([8]; 5° C., 6 months) of the same molecule?
Answer: 0

Question: What about the “Particulate Matter (USP) (≥25 μm)” value ([8]; 5° C., 9 months) of the same molecule?
Answer: 0

Question: And the “Particulate Matter (USP) (≥10 μm)” value ([8]; 5° C., 12 months)?
Answer: 2

Question: What about the “Particulate Matter (USP) (≥25 μm)” value ([8]; 5° C., 12 months) of the same molecule?
Answer: 0

Question: What about the “Particulate Matter (USP) (≥25 μm)” value ([8]; 5° C., 18 months) of the same molecule?
Answer: 0

Question: What about the “Particulate Matter (USP) (≥25 μm)” value ([8]; 5° C., 24 months) of the same molecule?
Answer: 0

Question: What about the “Particulate Matter (USP) (≥25 μm)” value ([8]; 5° C., Initial) of the same molecule?
Answer: 0

Question: What about the “Particulate Matter (USP) (≥10 μm)” value ([8]; 40° C., 1 month) of the same molecule?
Answer: 1

Question: What about the “Particulate Matter (USP) (≥25 μm)” value ([8]; 40° C., 1 month) of the same molecule?
Answer: 0

Question: And the “Particulate Matter (USP) (≥10 μm)” value ([8]; 40° C., 2 months)?
Answer: 1

Question: And the “Particulate Matter (USP) (≥25 μm)” value ([8]; 40° C., 2 months)?
Answer: 0

Question: And the “Particulate Matter (USP) (≥10 μm)” value ([8]; 40° C., 3 months)?
Answer: 1

Question: What about the “Particulate Matter (USP) (≥25 μm)” value ([8]; 40° C., 3 months) of the same molecule?
Answer: 0

Question: What about the “Particulate Matter (USP) (≥10 μm)” value ([8]; 40° C., Initial) of the same molecule?
Answer: 1

Question: And the “Particulate Matter (USP) (≥25 μm)” value ([8]; 40° C., Initial)?
Answer: 0
